Measurements published in the supplement of paper PMC5908809.

Legend:
[1] = system: normal NK cells expanded with K562-aAPC; experiment: percent inhibition of viability; higher = more inhibition; settings: 72 h, IL-2 2.5 ng/mL
Experimental: (§1)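 Drug sensitivity and resistance testing on K562-aAPC-expanded normal NK cells: 5 concentrations (10-fold steps over a 10,000-fold range), 72 h at 37 °C, viability by CellTiter-Glo normalised to DMSO and benzethonium chloride controls; DSS from the fitted curve.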

[2] = system: DERL-7 (IL-2 2.5 ng/mL); experiment: as above; settings: 72 h
[3] = system: IMC-1 (IL-2 20 ng/mL); experiment: as above; settings: 72 h
[4] = system: KAI3 (IL-2 2.5 ng/mL); experiment: as above; settings: 72 h
[5] = system: KHYG-1 (IL-2 2.5 ng/mL); experiment: as above; settings: 72 h
[6] = system: NK-92 (IL-2 2.5 ng/mL); experiment: as above; settings: 72 h
[7] = system: NK-YS (IL-2 2.5 ng/mL); experiment: as above; settings: 72 h
[8] = system: NKL (IL-2 2.5 ng/mL); experiment: as above; settings: 72 h
[9] = system: SNK-6 (IL-2 2.5 ng/mL); experiment: as above; settings: 72 h
[10] = system: YT (IL-2 2.5 ng/mL); experiment: as above; settings: 72 h
[11] = system: normal primary NK cells, pool 1 (3 donors) (IL-2 2.5 ng/mL); experiment: as above; settings: 72 h
[12] = system: normal primary NK cells, pool 1 (3 donors), resting (IL-2 0 ng/mL); experiment: as above; settings: 72 h
[13] = system: normal primary NK cells, pool 2 (3 donors) (IL-2 2.5 ng/mL); experiment: as above; settings: 72 h
[14] = system: normal primary NK cells, pool 3 (3 donors) (IL-2 2.5 ng/mL); experiment: as above; settings: 72 h
[15] = system: normal NK cells expanded with K562-aAPC; experiment: drug sensitivity score (DSS) (DSS units); higher = more sensitive; extreme values may be limits of the assay; settings: 72 h; IL-2 2.5 ng/mL
Experimental: as §1

[16] = system: DERL-7 (IL-2 2.5 ng/mL); experiment: as above; settings: 72 h
[17] = system: IMC-1 (IL-2 20 ng/mL); experiment: as above; settings: 72 h
[18] = system: KAI3 (IL-2 2.5 ng/mL); experiment: as above; settings: 72 h
[19] = system: KHYG-1 (IL-2 2.5 ng/mL); experiment: as above; settings: 72 h
[20] = system: NK-92 (IL-2 2.5 ng/mL); experiment: as above; settings: 72 h
[21] = system: NK-YS (IL-2 2.5 ng/mL); experiment: as above; settings: 72 h
[22] = system: NKL (IL-2 2.5 ng/mL); experiment: as above; settings: 72 h
[23] = system: SNK-6 (IL-2 2.5 ng/mL); experiment: as above; settings: 72 h
[24] = system: YT (IL-2 2.5 ng/mL); experiment: as above; settings: 72 h
[25] = system: normal primary NK cells, pool 1 (3 donors) (IL-2 2.5 ng/mL); experiment: as above; settings: 72 h
[26] = system: normal primary NK cells, pool 1 (3 donors), resting (IL-2 0 ng/mL); experiment: as above; settings: 72 h
[27] = system: normal primary NK cells, pool 2 (3 donors) (IL-2 2.5 ng/mL); experiment: as above; settings: 72 h
[28] = system: normal primary NK cells, pool 3 (3 donors) (IL-2 2.5 ng/mL); experiment: as above; settings: 72 h

CC(C)CC(=O)Nc1n[nH]c2c1CN(C(=O)C1CCN(C)CC1)C2(C)C (max concentration tested 10000 nM)
percent inhibition of viability [%]
Settings	1 nM	10 nM	100 nM	1000 nM	10000 nM
[1]	1.26	-0.23	9.16	24.6	84.3
[2]	-3.18	-3.13	19.6	55.2	100
[3]	3.15	9.36	18	101	101
[4]	0.22	5.67	10.2	34.4	97.8
[5]	3.79	5.48	13.2	79.1	104
[6]	-3.46	8.8	18	15.4	52.1
[7]	-0.22	5.26	25.9	59.1	103
[8]	9.47	12.1	8.64	26	105
[9]	1.24	13.9	17.6	21.7	77.7
[10]	4.62	5.8	7.48	37.5	104
[11]	5.81	-11.3	1.49	2.13	93.6
[12]	-13.4	-45.2	-20.7	-66.9	85
[13]	-7.33	3.3	10.1	14.3	85.4
[14]	-6.64	-10.6	9.27	6.31	54.5

Settings	drug sensitivity score
[15]	7.91
[16]	13.1
[17]	21
[18]	9.47
[19]	16.4
[20]	5.51
[21]	14.8
[22]	9.5
[23]	6.8
[24]	10.6
[25]	5.49
[26]	3.02
[27]	7.11
[28]	3.98

C[C@@H](Oc1ccc2[nH]nc(/C=C/c3cnn(CCO)c3)c2c1)c1c(Cl)cncc1Cl (max concentration tested 1000 nM)
percent inhibition of viability [%]
Settings	0.1 nM	1 nM	10 nM	100 nM	1000 nM
[1]	-0.71	-1.93	22.3	94.3	97.8
[2]	-4.25	-1.44	12.1	50	100
[3]	2.17	-5.43	-8.61	21.8	98.1
[4]	2.24	4.1	25	79.6	90.2
[5]	-1.37	-1.77	23.3	101	98.7
[6]	-7.71	-11	4.63	65.8	84.5
[7]	-6.71	-5.42	10.9	60.3	93
[8]	-5.85	0.25	37.2	79.9	84.6
[9]	-12	0.34	23.3	95	92.3
[10]	-2.34	-5.3	-2.2	9.63	85.6
[11]	-3.85	-11	2.43	60.1	72.1
[12]	-1.49	-11.6	-11.3	13.6	13.4
[13]	-12.2	-5.79	27.6	62.9	71.7
[14]	-11.8	-16.6	7.47	63.4	69.5

Settings	drug sensitivity score
[15]	20.3
[16]	11.6
[17]	8.86
[18]	17.6
[19]	21.6
[20]	12.9
[21]	12.9
[22]	19.4
[23]	20.8
[24]	6.34
[25]	11.4
[26]	0.82
[27]	15.3
[28]	12.7

CC(C)(C)Cn1c(N)nc2ccc(-c3[nH]c(C(C)(C)C)nc3-c3ccc(F)cc3)nc21 [Ralimetinib] (max concentration tested 10000 nM)
percent inhibition of viability [%]
Settings	1 nM	10 nM	100 nM	1000 nM	10000 nM
[1]	-3.87	-2.62	-1.53	-3.78	1.72
[2]	-0.84	3.26	3.67	8.89	48.2
[3]	-2.69	-3.53	-8.24	-9.02	-12.2
[4]	5.37	12.8	12.9	10.1	11
[5]	-1.88	-3.23	-1.97	1.06	46.9
[6]	-0.07	2.05	1.85	13.3	86.5
[7]	-3.85	0.83	1.68	3.41	13.1
[8]	0.97	4.97	7.92	17.1	70
[9]	-2.2	-16	-17.2	-21.4	9.93
[10]	1.29	1.91	4.09	6.38	55.6
[11]	-10.9	-14.6	6.91	-4.19	51.1
[12]	-14.8	-29.1	-0.22	-17.7	77
[13]	-10.8	-12.4	-9.11	-7.41	31.4
[14]	-7.2	-12.3	-15.7	-6.16	11.3

Settings	drug sensitivity score
[15]	0
[16]	4
[17]	0
[18]	0
[19]	2.57
[20]	7.03
[21]	0.28
[22]	6.44
[23]	0
[24]	4.06
[25]	2.38
[26]	3.35
[27]	1.04
[28]	0
